Legend:
FAP on CAFs = biological target: T1, FAP on CAFs (Homo sapiens, UniProt Q12884); assay: FAP binding assay (radioligand competition) on CAFs; conditions: radiolabeled compound co-incubated 60 min with corresponding unlabeled FAPI derivative
T1 construct: FAP-expressing CAFs were inoculated in a 24-well plate; endogenous in cells; host or cells: cancer-associated fibroblasts (CAFs)
T1 sequence (Q12884 1-760): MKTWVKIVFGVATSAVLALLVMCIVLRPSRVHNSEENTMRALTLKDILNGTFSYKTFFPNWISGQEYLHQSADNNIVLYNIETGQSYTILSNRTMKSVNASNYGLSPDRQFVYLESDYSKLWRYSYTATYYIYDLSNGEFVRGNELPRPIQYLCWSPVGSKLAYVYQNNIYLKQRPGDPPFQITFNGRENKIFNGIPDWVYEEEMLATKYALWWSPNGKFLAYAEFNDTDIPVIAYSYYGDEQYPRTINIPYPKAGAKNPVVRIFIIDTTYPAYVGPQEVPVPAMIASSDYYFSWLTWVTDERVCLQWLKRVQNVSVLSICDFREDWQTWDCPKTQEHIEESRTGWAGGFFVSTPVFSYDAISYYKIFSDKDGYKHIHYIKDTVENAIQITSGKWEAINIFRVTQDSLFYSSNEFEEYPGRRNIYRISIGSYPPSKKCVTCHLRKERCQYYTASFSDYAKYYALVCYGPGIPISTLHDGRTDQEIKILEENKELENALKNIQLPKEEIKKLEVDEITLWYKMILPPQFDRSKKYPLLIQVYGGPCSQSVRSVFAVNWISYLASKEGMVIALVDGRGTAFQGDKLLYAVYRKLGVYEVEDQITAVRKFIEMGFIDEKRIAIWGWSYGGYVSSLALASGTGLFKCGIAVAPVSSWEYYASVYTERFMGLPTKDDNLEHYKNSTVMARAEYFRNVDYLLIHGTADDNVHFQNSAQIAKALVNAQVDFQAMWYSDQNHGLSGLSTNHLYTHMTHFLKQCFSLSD
Method: FAP-expressing CAFs were inoculated in a 24-well plate and cultivated with a 10% (volume fraction) FBS-containing 1640 medium for 48 h before the experiment until a cell density was about 80% to 90%; the medium was changed to an FBS-free 1640 medium; and the ^68Ga-2PEG(3)-FAPI-dimer, ^68Ga-FAPI-46, or ^68Ga-2PEG(3)-FAPI-dimer+11.3 nmol FAPI-46 (for the blocking experiment) was added to the 24-well plate and incubated, with predetermined intervals of 10 min, 30 min, 60 min, 90 min, and 120 min. The FAP binding assay was conducted after a radiolabeled compound and a corresponding unlabeled FAPI derivative (1.27×10^−4-10^−13 mol/L of 2PEG(3)-FAPI-dimer was added to ^68Ga-2PEG(3)-FAPI-dimer; and 2.83×10^−4-1×10^−13 mol/L of FAPI-46 was added to ^68Ga-FAPI-46) were co-incubated for 60 min. A half-inhibitory concentration (IC50s) was calculated by using GraphPad Prism to fit data through nonlinear regression. In each step of the experiment, cells were washed twice with 1 mL of PBS. Finally, CAFs were lysed with 0.5 mL of a 1 mol/L NaOH aqueous solution to conduct radioactive counting with a gamma counter. 3 parallel replicates were set for each experiment.

[1] = system: lesions in the three cancer patients; assay: PET/CT in tumor patients (NPC, thyroid cancer, HCC), SUVmax of lesions; type: in vivo, human
Method: This experiment was approved by the Clinical Research Ethics Committee of the First Affiliated Hospital of Xiamen University, and all subjects signed a written informed consent form. Doses of ^68Ga-FAPI-46 and ^68Ga-2PEG(3)-FAPI-dimer for intravenous injection (1.8 MBq to 2.2 MBq [0.05 mCi to 0.06 mCi]/kg) were calculated according to a body weight of a patient. A cancer patient was administered with ^68Ga-2PEG(3)-FAPI-dimer and ^68Ga-FAPI-46 at an interval of 3 d. Data were acquired using a hybrid PET/CT scanner (Discovery MI, GE Healthcare, Milwaukee, WI, USA). A PET/CT image was acquired at 60 min after intravenous injection (a thyroid cancer patient was scanned twice at 60 min and 240 min after injection). A maximum standard uptake value (SUVmax) was automatically calculated with ROIs drawn on a transaxial image. PET/CT scanning was conducted at 60 min after the three patients were intravenously administered with ^68Ga-FAPI-46 and ^68Ga-2PEG(3)-FAPI-dimer, including a nasopharyngeal carcinoma (NPC) patient (non-keratinizing undifferentiated carcinoma, immunotherapy was conducted when the widespread bone metastasis occurred after chemoradiotherapy), a thyroid cancer patient (multiple cycles of radioactive iodine therapy were conducted after papillary thyroid carcinoma (PTC), total thyroidectomy, and lymph node dissection), and an HCC patient (untreated at preliminary diagnosis). The comparison of ^68Ga-FAPI-46 and ^68Ga-2PEG(3)-FAPI-dimer uptake among lesions in the three cancer patients was shown in Table 3.

[2] = Patient 1 (NPC), PET/CT 60 min after i.v. injection
[3] = Patient 2 (Thyroid cancer), PET/CT 60 min after i.v. injection

IC50 (FAP on CAFs): 3.57 nM
Structure (SMILES): CN(CCCN1CCN(C(=O)COCCOCCOCCNC(=O)CCC(=O)N[C@@H](CCCCNC(=O)CN2CCN(CC(=O)[O-])CCN(CC(=O)[O-])CCN(CC(=O)[O-])CC2)C(=O)NCCOCCOCCOCC(=O)N2CCN(CCCN(C)c3ccc4nccc(C(=O)NCC(=O)N5CC(F)(F)C[C@H]5C#N)c4c3)CC2)CC1)c1ccc2nccc(C(=O)NCC(=O)N3CC(F)(F)C[C@H]3C#N)c2c1.[68Ga+3] [^68Ga-2PEG(3)-FAPI-dimer]
SUVmax, Bone metastasis 1 [1, 2]: 17.8 | SUVmax, Bone metastasis 2 [1, 2]: 27.5 | SUVmax, Bone metastasis 3 [1, 2]: 27.4 | SUVmax, Bone metastasis 4 [1, 2]: 25.1 | SUVmax, Bone metastasis 5 [1, 2]: 29.8 | SUVmax, Bone metastasis 6 [1, 2]: 20.8 | SUVmax, Bone metastasis 7 [1, 2]: 17.2 | SUVmax, Bone metastasis 8 [1, 2]: 22.1 | SUVmax, Bone metastasis 10 [1, 2]: 23.3 | SUVmax, Axillary lymph node 1 [1, 3]: 23.2 | SUVmax, Axillary lymph node 2 [1, 3]: 33.2 | SUVmax, Axillary lymph node 3 [1, 3]: 28.9 | SUVmax, Bone metastasis 1 [1, 3]: 26.4 | SUVmax, Cervical lymph node 1 [1, 3]: 32.8 | SUVmax, Cervical lymph node 2 [1, 3]: 8.1 | SUVmax, Hilar lymph node 1 [1, 3]: 18.1 | SUVmax, Mediastinal lymph node 1 [1, 3]: 24.6 | SUVmax, Supraclavicular lymph node 1 [1, 3]: 39.0 | SUVmax, Supraclavicular lymph node 2 [1, 3]: 24.1 | SUVmax, Primary tumor ([1]; Patient 3 (HCC), tumor with low FAP expression, PET/CT 60 min after i.v. injection): 9.8 | uptake compared with ^68Ga-FAPI-46 in the comparative analysis of single lesions ([1]; three cancer patients, Table 3): significantly higher

Reference: patent publication US11952368B2, “FAPI dimer compound, FAPI dimer-based positron emission tomography (PET) imaging agent for tumor diagnosis, and preparation method and use thereof” (XIAMEN UNIVERSITY, priority 2021, dated 2024)
